Reference: patent US20050054620A1, “Paricalcitol as a chemotherapeutic agent” (priority 2003, published 2005)

What was measured:
HT-29 cells = assay: Western blot of cell lysates; assay type: cell-based, human; conditions: 10^−7M, 72 hrs
Protocol: Western blot analysis was used to determine the levels of proteins involved in cell cycle and differentiation. […] After centrifugation at 15,000×g for 15 min at 4° C., the suspension was collected. Protein concentrations were quantitated using the Bio-Rad assay (Bio-Rad Labolatories, Hercules, Calif.). […] The blots were developed using the Supersignal West Pico Chemiluminescent Substrate Kit (Pierce, Rockford, Ill.). In FIG. 4B, HT-29 cells were exposed to either paricalcitol (10^−7M) or 1,25(OH)2D3(10^−7M). Cell lysates were prepared after 72 hrs of culture and analyzed by Western blot. The Western blot was probed sequentially with antibodies for p27KIP1, p21WAF1, cyclin D1, c-myc and E-Cadherin (antibodies from Santa Cruz Biotechnology) as described in Example II. Control cells were treated with vehicle alone. The quantity of protein was normalized by comparison to the amount of GAPDH. In FIG. 4C, HT-29 and SW837 cells were cultured with either paricalcitol (10^−7M) or 1,25(OH)2D3 (10^−7M) for 72 hrs. Cell lysates were prepared and analyzed by Western blot which was probed sequentially with antibodies to COX-1 and COX-2 (Santa Cruz Biotechnology). Control cells were treated with vehicle alone. The amount of protein was normalized by comparison to the quantity of GAPDH.

24-hydroxylase mRNA = assay: RT-PCR of 24-hydroxylase mRNA in HL-60 cells; assay type: cell-based, human; conditions: paricalcitol 0.01 μM, arsenic trioxide 0.8 μM, after 24 hrs
Protocol: HL-60 and NB-4 myeloid leukemia cell lines were treated with paricalcitol (0.01 μM for HL-60, 0.1 μM for NB-4) and/or arsenic trioxide (0.8 μM for HL-60, 0.6 μM for NB-4). Control cells were treated with vehicle alone. […] Cell lysates were also made and used for Western blot which was probed with antibodies to C/EBPβ. (B) Cell lysate of HL-60 cells were made after 3 days and used for Western blot which was probed sequentially with antibodies to Bcl-2, BclXL and Bax (C) Cell lysates of HL-60 cells were made after 1, 2 or 3 days and used for Western blot which was probed sequentially with antibodies to phosphorylated ERK. (D) After pretreatment either with or without […] of PD98059 for 1 hour, HL-60 cells were treated with paricalcitol (0.01 μM) and/or arsenic trioxide (0.8 μM) for 2 days. Control cells were treated with vehicle alone. CD14 expression was measured by flow cytometry.
In FIG. 6B, HT-29 colon cancer cells were treated with paricalcitol (10^−7M) for 0, 6, 12 or 24 hrs and RNA was harvested. Expression of 24 hydroxylase mRNA was analysed by RT-PCR. The amounts of mRNA were normalized by comparison to 18S RNA. In FIG. 6C, mononuclear cells extracted from spleens of either wild type or VDR knock-out mice were treated with paricalcitol (10^−8M) for either 12 or 24 hrs, and RNA was harvested. Expression of 24 hydroxylase mRNA was analysed by RT-PCR. […]

[1] = tested on: U937 cells expressing PML-RARA (PR9); assay: CD14 expression by flow cytometry, PR9 cells with zinc; assay type: cell-based, human; conditions: paricalcitol 0.01 μM; 3 days; compared to PR9 without zinc
Protocol: (A) NB-4 myeloid leukemia cell lines were treated with paricalcitol (0.1 μM) and/or arsenic trioxide (0.6 μM) for 3 days. Control cells were treated with vehicle alone. Cell lysates were made and used for Western blot which was probed sequentially with antibodies to RARA to detect the fusion protein PML-RARα. (B) U937 cells were stably transfected with either the control MT vector (U937-PMT) or the PML-RARα cDNA under the control of the Zn2^+-inducible murine metallothionein 1 promoter (PR9). Cells were treated either with (+) or without (−) Zn for 2 days. Paricalcitol and/or arsenic trioxide of the indicated doses were added to the cells. Cell lysates were harvested and used for Western blot which was probed with antibodies to RARα to detect PML-RARα fusion protein ([…]). (C) U937-PMT and PR9 cells were treated either with or without Zn and with paricalcitol, and/or arsenic trioxide as indicated for 3 days, and CD14 expression was measured by flow cytometry.
Cell lines used in this study were obtained from American Type Culture Collection (Rockville, Md.) and were maintained according to their recommendations. Myeloid leukemia cell lines (HL-60, NB-4, THP-1, U937), lymphoma cell lines (Raji, Ramos, Daudi, Jurkat, Jeko-1, JUDHL), myeloma cell lines (RPMI-8226, ARH-77, NCI-H929), ovarian cancer cell lines and PC-3 prostate cell line were grown in RPMI 1640 with 10% FCS. […]

NCI-H929 myeloma cells = conditions: 4 days exposure

C[C@H](/C=C/[C@H](C)C(C)(C)O)[C@H]1CC[C@H]2/C(=C/C=C3C[C@@H](O)C[C@H](O)C3)CCC[C@]12C [paricalcitol, 19-nor-1,25, (OH)2D3]
decrease of COX-2 expression (HT-29 cells): 40%
decrease of c-myc expression (HT-29 cells): ~40%
decrease of cyclin D1 expression (HT-29 cells): about 50%
effect on COX-1 expression (HT-29 cells): without affecting
increase of E-cadherin (HT-29 cells): about 6 fold
increase of p21WAF1 protein level (HT-29 cells): about 5 fold
increase of p27KIP1 protein level (HT-29 cells): ~6 fold
mRNA levels of 24-hydroxylase (24-hydroxylase mRNA): increased
differentiation (CD14) of PR9 cells cultured with zinc [1]: partially blocked
antiproliferative effect by MTT assay (NCI-H929 myeloma cells): sensitive
